Data: patent publication US20200384053A1, “Ophthalmic Compositions and Medical Uses Thereof in Treatment of Myopia” (SunDragon Bio-medical Technology Co., priority 2019, published 2020)

Tested on: Golden Syrian hamsters
Experiment: Monocular form deprivation (MFD) myopia animal model, axial length by A-scan ultrasonography
Format: in vivo
Settings: after 21-day daily eye drop treatment
Experimental: 0.125% atropine eye drop was prepared under sterile conditions by dilution of 1% atropine ophthalmic solution with artificial tears (commercially available from Alcon Laboratories, Inc., Fort Worth, Tex., USA). The Extract A and/or Extract C were mixed with 5 ml artificial tears (commercially available from Alcon Laboratories, Inc., Fort Worth, Tex., USA) to reach a final concentration of 150 ng/ml by an oscillator.
3-week old Golden Syrian hamsters, each weighing 80 to 90 grams, were used for experiments. All animals were kept in a 12-hour light/dark cycle. All procedures were approved by the Institutional Animal Care and Use Committee of China Medical University and were conducted in accordance with the guidelines of the Use of Animals in Ophthalmic and Vision Research. Hamsters were raised with right eyelid fusion for 21 days. MFD was induced in the right eyes of the animals, with their left eyes serving as a control. The animals were randomly assigned to […] receiving daily applications of artificial tears or the eye drops prepared in Example 8, respectively, to both eyes. The treatment lasted for 21 days. The axial lengths of both eyes in each animal were measured on the 21st day following the start of the treatment by A-scan ultrasonography (PacScan 300 Plus, NY, USA).

For CN1[C@@H]2CC[C@H]1C[C@@H](OC(=O)C(CO)c1ccccc1)C2 (some centres unmarked) [Atropine, atropine], the “axial lengths of the non-MFD (left) eyes” value (Control 0.36±0.05 mm, differences not statistically significant) was 0.33±0.03 mm and the “axial lengths of the MFD (right) eyes” value (extracts 150 ng/ml, atropine 0.125%, Control 0.436±0.06 mm, p<0.05 vs Control) was 0.358±0.01 mm.
